Measurements published in ChEMBL document CHEMBL4382217 (Bioorg Med Chem, 2018).

What was measured:
[1] = Toxicity in castrated nude mouse xenografted with human HCC827 cells assessed as body weight loss at 10 mg/kg, po daily for 14 consecutive days relative to control; assay type: organism-based; conditions: in vivo
NCI-H1975 [2] = experiment: Antiproliferative activity against human NCI-H1975 cells harboring EGFR T790M/L858R double mutant after 72 hrs by MTS assay; assay type: functional, cell-based
PC-9 [3] = experiment: Antiproliferative activity against human PC9 cells harboring EGFR mutant after 72 hrs by MTS assay; assay type: functional, cell-based; conditions: PC-9, 72 h
HCC827 [4] = experiment: Antiproliferative activity against human HCC827 cells harboring EGFR mutant after 72 hrs by MTS assay; assay type: functional, cell-based; conditions: HCC827, 72 h
PC-9 [5] = experiment: Antitumor activity against human PC9 cells harboring EGFR exon-19 del mutant xenografted in castrated nude mouse assessed as tumor growth inhibition at 10 mg/kg, po daily for 14 consecutive days measured on day 15 relative to control; assay type: functional
[6] = Half life in po dosed mouse; assay type: ADME, organism-based; conditions: in vivo
NCI-H1975 [7] = experiment: Antitumor activity against human NCI-H1975 cells harboring EGFR T790M/L858R double mutant xenografted in castrated nude mouse assessed as tumor growth inhibition at 20 mg/kg, po daily for 14 consecutive days measured on day 15 relative to control; assay type: functional
[8] = Toxicity in castrated nude mouse xenografted with human PC9 cells assessed as body weight loss at 10 mg/kg, po daily for 14 consecutive days relative to control; assay type: organism-based; conditions: in vivo
Calu-3 = experiment: Antiproliferative activity against human Calu3 cells harboring WT EGFR after 72 hrs by MTS assay; assay type: cell-based; conditions: Calu-3, 72 h
[9] = Toxicity in castrated nude mouse xenografted with human NCI-H1975 cells assessed as body weight loss at 20 mg/kg, po daily for 14 consecutive days relative to control; assay type: organism-based; conditions: in vivo
Calu-6 = experiment: Antiproliferative activity against human Calu6 cells harboring WT EGFR after 72 hrs by MTS assay; assay type: cell-based; conditions: Calu-6, 72 h
HCC827 [10] = experiment: Antitumor activity against human HCC827 cells harboring EGFR exon-19 del mutant xenografted in castrated nude mouse assessed as tumor growth inhibition at 10 mg/kg, po daily for 14 consecutive days measured on day 15 relative to control; assay type: functional
[11] = Selectivity index, ratio of IC50 for human Calu3 cells harboring WT EGFR to IC50 for human NCI-H1975 cells harboring EGFR T790M/L858R double mutant
PC-9 [12] = experiment: Antitumor activity against human PC9 cells harboring EGFR exon-19 del mutant xenografted in castrated nude mouse assessed as tumor growth inhibition administered orally daily for 14 consecutive days measured on day 15; assay type: functional, cell-based
HCC827 [13] = experiment: Antitumor activity against human HCC827 cells harboring EGFR exon-19 del mutant xenografted in castrated nude mouse assessed as tumor growth inhibition at 0.3 mg/kg, po daily for 14 consecutive days measured on day 15 relative to control; assay type: functional; conditions: 360 h, read-out: TGI
[14] = Selectivity index, ratio of IC50 for human A431 cells harboring WT EGFR to IC50 for human NCI-H1975 cells harboring EGFR T790M/L858R double mutant
NCI-H1975 [15] = experiment: Antitumor activity against human NCI-H1975 cells harboring EGFR T790M/L858R double mutant xenografted in castrated nude mouse assessed as tumor growth inhibition at 5 mg/kg, po daily for 14 consecutive days measured on day 15 relative to control; assay type: functional; conditions: 360 h, read-out: TGI
PC-9 [16] = experiment: Antitumor activity against human PC9 cells harboring EGFR exon-19 del mutant xenografted in castrated nude mouse assessed as tumor growth inhibition at 5 mg/kg, po daily for 14 consecutive days measured on day 15 relative to control; assay type: functional; conditions: PC-9, po, 360 h, read-out: TGI
NCI-H1975 [17] = experiment: Antitumor activity against human NCI-H1975 cells harboring EGFR T790M/L858R double mutant xenografted in castrated nude mouse assessed as tumor growth inhibition at 40 mg/kg, po daily for 14 consecutive days measured on day 15 relative to control; assay type: functional; conditions: 360 h, read-out: TGI
[18] = biological target: Epidermal growth factor receptor (Homo sapiens, UniProt P00533, L858R/T790M); experiment: Inhibition of recombinant human N-terminal GST-tagged EGFR T790M/L858R double mutant (696-end residues) by fluorescence assay
Sequence of Epidermal growth factor receptor (Homo sapiens, UniProt P00533, L858R/T790M) (P00533 25-1210 T790M/L858R limits assumed): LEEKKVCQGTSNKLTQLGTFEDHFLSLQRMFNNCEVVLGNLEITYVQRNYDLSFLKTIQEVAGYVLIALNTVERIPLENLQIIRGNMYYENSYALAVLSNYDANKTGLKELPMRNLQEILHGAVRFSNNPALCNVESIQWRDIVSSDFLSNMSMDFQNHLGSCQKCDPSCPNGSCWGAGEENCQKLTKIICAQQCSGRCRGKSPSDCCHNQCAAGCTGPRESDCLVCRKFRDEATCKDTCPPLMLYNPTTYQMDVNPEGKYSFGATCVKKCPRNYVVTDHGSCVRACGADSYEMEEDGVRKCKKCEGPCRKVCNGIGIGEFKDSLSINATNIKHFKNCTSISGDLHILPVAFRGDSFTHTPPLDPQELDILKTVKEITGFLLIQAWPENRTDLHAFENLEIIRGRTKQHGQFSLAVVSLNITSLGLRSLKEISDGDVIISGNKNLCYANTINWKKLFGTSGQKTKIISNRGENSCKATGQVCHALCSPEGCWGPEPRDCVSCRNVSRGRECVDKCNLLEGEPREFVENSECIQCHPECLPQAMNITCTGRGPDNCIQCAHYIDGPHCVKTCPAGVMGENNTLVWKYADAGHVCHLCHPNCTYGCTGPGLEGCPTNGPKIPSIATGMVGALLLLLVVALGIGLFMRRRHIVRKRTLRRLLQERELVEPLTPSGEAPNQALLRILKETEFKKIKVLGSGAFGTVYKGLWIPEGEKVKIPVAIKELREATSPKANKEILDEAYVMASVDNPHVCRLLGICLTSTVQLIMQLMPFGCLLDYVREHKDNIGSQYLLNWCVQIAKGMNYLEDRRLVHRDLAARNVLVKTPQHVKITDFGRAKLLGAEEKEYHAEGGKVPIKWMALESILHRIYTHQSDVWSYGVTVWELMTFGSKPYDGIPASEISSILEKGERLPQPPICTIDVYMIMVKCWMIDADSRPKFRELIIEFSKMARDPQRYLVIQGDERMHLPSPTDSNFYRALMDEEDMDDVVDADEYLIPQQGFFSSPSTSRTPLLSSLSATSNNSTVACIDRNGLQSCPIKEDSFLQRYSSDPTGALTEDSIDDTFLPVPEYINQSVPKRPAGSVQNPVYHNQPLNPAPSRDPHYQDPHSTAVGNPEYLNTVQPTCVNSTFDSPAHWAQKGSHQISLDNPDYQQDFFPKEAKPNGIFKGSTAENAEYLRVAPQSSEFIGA

HCC827 [19] = experiment: Antitumor activity against human HCC827 cells harboring EGFR exon-19 del mutant xenografted in castrated nude mouse assessed as tumor growth inhibition at 3 mg/kg, po daily for 14 consecutive days measured on day 15 relative to control; assay type: functional; conditions: 360 h, read-out: TGI
Homo sapiens = species on record: Homo sapiens; experiment: Selectivity index, ratio of IC50 for recombinant human N-terminal GST-tagged EGFR (696-end residues) expressed in baculovirus expression system to IC50 for recombinant human N-terminal GST-tagged EGFR T790M/L858R double mutant (696-end residues)
[20] = biological target: T1, Epidermal growth factor receptor (Homo sapiens, UniProt P00533); experiment: Inhibition of WT EGFR in human A431 cells assessed as reduction in ERK phosphorylation at T202/Y204 residues up to 10 uM after 4 hrs by Western blot analysis; assay type: cell-based
T1 sequence (P00533 whole entry): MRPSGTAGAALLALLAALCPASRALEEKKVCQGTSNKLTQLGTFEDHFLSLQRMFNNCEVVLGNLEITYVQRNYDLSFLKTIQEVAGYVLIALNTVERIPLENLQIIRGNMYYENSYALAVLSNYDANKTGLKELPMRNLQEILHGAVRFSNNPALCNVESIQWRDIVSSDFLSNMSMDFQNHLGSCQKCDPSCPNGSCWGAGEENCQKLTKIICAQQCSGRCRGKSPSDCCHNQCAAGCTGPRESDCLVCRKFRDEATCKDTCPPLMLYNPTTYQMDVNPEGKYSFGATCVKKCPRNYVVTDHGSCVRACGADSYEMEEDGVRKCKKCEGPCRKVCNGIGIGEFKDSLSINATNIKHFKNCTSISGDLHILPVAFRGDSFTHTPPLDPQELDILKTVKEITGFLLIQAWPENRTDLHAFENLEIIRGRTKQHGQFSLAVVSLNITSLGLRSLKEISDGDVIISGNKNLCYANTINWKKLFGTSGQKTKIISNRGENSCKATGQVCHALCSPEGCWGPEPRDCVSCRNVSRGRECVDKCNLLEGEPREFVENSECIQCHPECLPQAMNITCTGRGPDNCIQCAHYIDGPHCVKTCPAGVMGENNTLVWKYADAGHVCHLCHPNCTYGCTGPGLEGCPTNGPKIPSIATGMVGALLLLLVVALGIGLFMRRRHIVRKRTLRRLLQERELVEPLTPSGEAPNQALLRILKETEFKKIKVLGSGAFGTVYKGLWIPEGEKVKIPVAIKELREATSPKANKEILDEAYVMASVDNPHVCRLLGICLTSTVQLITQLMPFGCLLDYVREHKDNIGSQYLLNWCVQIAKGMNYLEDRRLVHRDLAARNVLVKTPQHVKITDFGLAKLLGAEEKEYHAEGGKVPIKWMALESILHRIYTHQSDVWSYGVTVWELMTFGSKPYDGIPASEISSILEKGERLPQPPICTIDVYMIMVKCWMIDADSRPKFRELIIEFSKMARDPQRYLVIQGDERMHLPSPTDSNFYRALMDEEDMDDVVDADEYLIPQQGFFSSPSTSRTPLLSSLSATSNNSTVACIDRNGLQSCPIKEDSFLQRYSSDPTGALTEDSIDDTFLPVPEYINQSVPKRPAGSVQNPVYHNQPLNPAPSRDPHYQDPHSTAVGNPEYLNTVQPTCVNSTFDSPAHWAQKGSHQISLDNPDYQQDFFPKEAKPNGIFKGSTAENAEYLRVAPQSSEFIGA

[21] = Toxicity in castrated nude mouse xenografted with human HCC827 cells assessed as body weight loss at 0.3 to 10 mg/kg, po daily for 14 consecutive days; assay type: organism-based; conditions: in vivo
[22] = Selectivity index, ratio of IC50 for human Calu3 cells harboring WT EGFR to IC50 for human PC9 cells harboring EGFR mutant
A-431 = experiment: (§1) Antiproliferative activity against human A431 cells harboring WT EGFR after 72 hrs by MTS assay; assay type: cell-based; conditions: Homo sapiens, A-431, 72 h
[23] = as §1; assay type: cell-based, A-431; conditions: human, A431 cells harboring WT EGFR
[24] = Selectivity index, ratio of IC50 for human Calu3 cells harboring WT EGFR to IC50 for human HCC827 cells harboring EGFR mutant
[25] = Toxicity in castrated nude mouse xenografted with human PC9 cells assessed as body weight loss at 2 to 20 mg/kg, po daily for 14 consecutive days; assay type: organism-based; conditions: in vivo
[26] = biological target: T1, Epidermal growth factor receptor; experiment: Inhibition of recombinant human N-terminal GST-tagged EGFR (696-end residues) expressed in baculovirus expression system using Srctide as substrate by fluorescence assay
[27] = biological target: Epidermal growth factor receptor (Homo sapiens, UniProt P00533, L858R); experiment: Inhibition of recombinant human GST-tagged EGFR L858R mutant expressed in baculovirus expression system by fluorescence assay
Sequence of Epidermal growth factor receptor (Homo sapiens, UniProt P00533, L858R) (P00533 25-1210 L858R limits assumed): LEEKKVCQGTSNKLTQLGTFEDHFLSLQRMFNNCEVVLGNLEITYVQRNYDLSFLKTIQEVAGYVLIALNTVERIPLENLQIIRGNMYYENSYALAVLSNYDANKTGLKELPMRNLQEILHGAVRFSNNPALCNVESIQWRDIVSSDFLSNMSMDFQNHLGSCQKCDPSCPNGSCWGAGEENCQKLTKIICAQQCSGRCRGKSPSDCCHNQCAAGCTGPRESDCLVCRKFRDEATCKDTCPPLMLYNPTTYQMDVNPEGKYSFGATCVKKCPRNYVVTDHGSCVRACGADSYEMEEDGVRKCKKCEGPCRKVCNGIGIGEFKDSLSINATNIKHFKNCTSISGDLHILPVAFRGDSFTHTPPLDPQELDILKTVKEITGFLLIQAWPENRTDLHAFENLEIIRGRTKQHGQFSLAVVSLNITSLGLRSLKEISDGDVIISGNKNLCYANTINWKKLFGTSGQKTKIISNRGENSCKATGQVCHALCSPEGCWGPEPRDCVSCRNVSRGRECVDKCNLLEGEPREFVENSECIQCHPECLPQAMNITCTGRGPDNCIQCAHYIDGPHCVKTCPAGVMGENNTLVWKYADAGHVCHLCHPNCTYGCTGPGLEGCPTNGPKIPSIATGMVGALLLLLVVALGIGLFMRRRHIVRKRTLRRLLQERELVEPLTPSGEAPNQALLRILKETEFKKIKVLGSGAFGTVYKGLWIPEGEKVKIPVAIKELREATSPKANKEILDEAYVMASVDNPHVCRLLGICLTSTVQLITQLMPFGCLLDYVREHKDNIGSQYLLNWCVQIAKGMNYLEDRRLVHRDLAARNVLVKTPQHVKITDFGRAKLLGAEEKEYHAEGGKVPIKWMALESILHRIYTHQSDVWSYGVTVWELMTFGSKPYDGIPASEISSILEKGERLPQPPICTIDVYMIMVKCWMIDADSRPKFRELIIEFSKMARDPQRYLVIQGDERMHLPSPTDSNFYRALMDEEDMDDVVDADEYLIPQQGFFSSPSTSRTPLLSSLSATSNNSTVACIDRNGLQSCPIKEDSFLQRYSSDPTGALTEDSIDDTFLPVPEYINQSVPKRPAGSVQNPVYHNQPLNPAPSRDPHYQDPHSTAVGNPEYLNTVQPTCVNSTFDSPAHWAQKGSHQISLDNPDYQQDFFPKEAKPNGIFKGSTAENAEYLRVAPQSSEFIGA

[28] = Toxicity in castrated nude mouse xenografted with human NCI-H1975 cells assessed as body weight loss at 5 to 40 mg/kg, po daily for 14 consecutive days; assay type: organism-based; conditions: in vivo
NCI-H1975 [29] = experiment: Antitumor activity against human NCI-H1975 cells harboring EGFR T790M/L858R double mutant xenografted in castrated nude mouse assessed as tumor growth inhibition at 10 mg/kg, po daily for 14 consecutive days measured on day 15 relative to control; assay type: functional; conditions: 360 h, read-out: TGI
PC-9 [30] = experiment: Antitumor activity against human PC9 cells harboring EGFR exon-19 del mutant xenografted in castrated nude mouse assessed as tumor growth inhibition at 20 mg/kg, po daily for 14 consecutive days measured on day 15 relative to control; assay type: functional; conditions: PC-9, po, 360 h, read-out: TGI
HCC827 [31] = experiment: Antitumor activity against human HCC827 cells harboring EGFR exon-19 del mutant xenografted in castrated nude mouse assessed as tumor growth inhibition administered orally daily for 14 consecutive days measured on day 15; assay type: functional, cell-based
NCI-H1975 [32] = experiment: Antitumor activity against human NCI-H1975 cells harboring EGFR T790M/L858R double mutant xenografted in castrated nude mouse assessed as tumor growth inhibition administered orally daily for 14 consecutive days measured on day 15; assay type: functional, cell-based
[33] = Selectivity index, ratio of IC50 for human A431 cells harboring WT EGFR to IC50 for human PC9 cells harboring EGFR mutant
[34] = Selectivity index, ratio of GI50 for human A431 cells harboring WT EGFR to GI50 for human NCI-H1975 cells harboring EGFR T790M/L858R double mutant
PC-9 [35] = experiment: Antitumor activity against human PC9 cells harboring EGFR exon-19 del mutant xenografted in castrated nude mouse assessed as tumor growth inhibition at 2 mg/kg, po daily for 14 consecutive days measured on day 15 relative to control; assay type: functional; conditions: PC-9, po, 360 h, read-out: TGI
[36] = Selectivity index, ratio of IC50 for human A431 cells harboring WT EGFR to IC50 for human HCC827 cells harboring EGFR mutant
HCC827 [37] = experiment: Antitumor activity against human HCC827 cells harboring EGFR exon-19 del mutant xenografted in castrated nude mouse assessed as tumor growth inhibition at 1 mg/kg, po daily for 14 consecutive days measured on day 15 relative to control; assay type: functional; conditions: 360 h, read-out: TGI
[38] = biological target: T1, Epidermal growth factor receptor; experiment: Inhibition of WT EGFR phosphorylation at Y1068 residue in human A431 cells up to 10 uM after 4 hrs by Western blot analysis; assay type: cell-based

## C=CC(=O)Nc1cc(Nc2nccc(-c3cn(C)c4ccccc34)n2)c(OC)cc1N(C)CCN(C)C [OSIMERTINIB]
[1]
  Activity: 8%
NCI-H1975 [2]
  GI50: […]
NCI-H1975 [2]; Homo sapiens, NCI-H1975, 72 h
  IC50: […]
PC-9 [3]
  IC50: 160 nM
HCC827 [4]
  IC50: […]
PC-9 [5]
  TGI: 106%
[6]
  half-life: […]
NCI-H1975 [7]
  TGI: 107%
[8]
  Activity: 8%
Calu-3
  IC50: […]
[9]
  Activity: <= 15%
Calu-6
  IC50: 5860 nM
HCC827 [10]
  TGI: 121%

## C=CC(=O)Nc1cc(Nc2nccc(-c3cn(C)c4cccnc34)n2)c(OC)cc1N(C)CCN(C)C
[11]
  Ratio IC50: 71.4
PC-9 [12]
  TGI: Dose-dependent effect
NCI-H1975 [2]; Homo sapiens, NCI-H1975, 72 h
  GI50: 6.8 nM
  IC50: 140 nM
PC-9 [3]
  IC50: 200 nM
HCC827 [13]
  inhibition in vivo at 0.3 mg/kg: 74%
[14]
  Ratio IC50: 23.5
HCC827 [4]
  IC50: 15 nM
NCI-H1975 [15]
  inhibition in vivo at 5 mg/kg: 48%
PC-9 [16]
  inhibition in vivo at 5 mg/kg: 94%
PC-9 [5]; Mus musculus, PC-9, po, 360 h, read-out: TGI
  inhibition in vivo at 10 mg/kg: 104%
NCI-H1975 [17]
  inhibition in vivo at 40 mg/kg: 106%
[18]
  IC50: 2100 nM
HCC827 [19]
  inhibition in vivo at 3 mg/kg: 119%
Homo sapiens
  Ratio IC50: 30
NCI-H1975 [7]; Mus musculus, NCI-H1975, po, 360 h, read-out: TGI
  inhibition in vivo at 20 mg/kg: 99%
[20]
  inhibition (INH): Not Active
[21]
  Activity: Non-Toxic
[22]
  Ratio IC50: 50
A-431
  IC50: 3290 nM
[23]
  GI50 at 72 h: 500 nM
[24]
  Ratio IC50: 666.7
[25]
  Activity: Non-Toxic
[26]
  IC50: 63000 nM
[27]
  IC50: 5500 nM
Calu-3
  IC50: > 10000 nM
[28]
  Activity: Non-Toxic
NCI-H1975 [29]
  inhibition in vivo at 10 mg/kg: 84%
PC-9 [30]
  inhibition in vivo at 20 mg/kg: 107%
HCC827 [31]
  TGI: Dose-dependent effect
NCI-H1975 [32]
  TGI: Dose-dependent effect
Calu-6
  IC50: > 10000 nM
[33]
  Ratio IC50: 16.5
[34]
  RatioGI50: 73.5
HCC827 [10]; Mus musculus, HCC827, po, 360 h, read-out: TGI
  inhibition in vivo at 10 mg/kg: 125%
PC-9 [35]
  inhibition in vivo at 2 mg/kg: 67%
[36]
  Ratio IC50: 219.3
HCC827 [37]
  inhibition in vivo at 1 mg/kg: 83%
[38]
  inhibition (INH): Not Active
